Measured values as given in patent publication US8901035B2, “Herbicidal compositions comprising 4-amino-3-chloro-5-fluoro-6-(4-chloro-2-fluoro-3-methoxyphenyl) pyridine-2-carboxylic acid or a derivative thereof and cellulose biosynthesis inhibitor herbicides” (Dow AgroSciences LLC, priority 2012, dated 2014).

Legend:
Assay type in all cases: in vivo
[1] = test system: Abutilon theophrasti Medik. (ABUTH); assay: Pre-emergence soil-applied herbicidal mixtures for weed control (greenhouse)
Description: (§1) Seeds or nutlets of the desired test plant species were planted in a soil matrix prepared by mixing a loam soil (e.g., 32 percent silt, 23 percent clay, and 45 percent sand, with a pH of about 6.5 and an organic matter content of about 1.9 percent) and calcareous grit in an 80 to 20 ratio. The soil matrix was contained in plastic pots with a volume of 1 quart and a surface area of 83.6 square centimeters (cm^2).
(§2) Treatments consisted of the benzyl ester of 4-amino-3-chloro-5-fluoro-6-(4-chloro-2-fluoro-3-methoxy-phenyl)pyridine-2-carboxylic acid (compound A) formulated as an SC (suspension concentrate) and various herbicidal components alone and in combination. Forms of compound A were applied on an acid equivalent basis.
(§3) Other herbicidal components were applied on an acid equivalent or active ingredient basis and included the cellulose biosynthesis inhibiting herbicides, isoxaben formulated as Gallery® 75DF and indaziflam formulated as Specticle® 20WSP.
(§4) Treatment requirements were calculated based upon the rates being tested, the concentration of active ingredient or acid equivalent in the formulation, and a 12 mL application volume at a rate of 187 L/ha.
(§5) For treatments comprised of formulated compounds, measured amounts of compounds were placed individually in 25 mL glass vials and diluted in a volume of 1.25% (v/v) Agri-Dex® crop oil concentrate (COC) to obtain 12× stock solutions. […] Application solutions were prepared by adding an appropriate amount of each stock solution (e.g., 1 mL) and diluted to the appropriate final concentrations with the addition of 10 mL of an aqueous mixture of 1.25% (v/v) COC so that the final spray solutions contained 1.25% (v/v) COC.
(§6) All stock solutions and applications solutions were visually inspected for compound compatibility prior to application. Spray solutions were applied to the soil with an overhead Mandel track sprayer equipped with a 8002E nozzles calibrated to deliver 187 L/ha over an application area of 0.503 m^2 at a spray height of 18 inches (46 cm) above average pot height. Control pots were sprayed in the same manner with the solvent blank.
(§7) The treated and control pots were placed in a greenhouse and top watered as needed. When required to ensure good germination and healthy plants, a fungicide treatment and/or other chemical or physical treatment was applied. The pots were maintained in a greenhouse with an approximate 14 hr. photoperiod which was maintained at about 29° C. during the day and 26° C. during the night. Nutrients (Peters® Excel 15-5-15 5-Ca 2-Mg) were applied in the irrigation solution as needed and water was added on a regular basis. Supplemental lighting was provided with overhead metal halide 1000-Watt lamps as necessary. After approximately 4 weeks, the condition of the test plants as compared with that of the untreated plants was determined visually and scored on a scale of 0 to 100 percent where 0 corresponds to no injury or growth inhibition and 100 corresponds to complete kill.
(§8) Colby's equation was used to determine the herbicidal effects expected from the mixtures (Colby, S. R. 1967. Calculation of the synergistic and antagonistic response of herbicide combinations. Weeds 15:20-22).
(§9) The following equation was used to calculate the expected activity of mixtures containing two active ingredients, A and B: Expected=A+B−(A×B/100)
(§10) A=observed efficacy of active ingredient A at the same concentration as used in the mixture.
(§11) B=observed efficacy of active ingredient B at the same concentration as used in the mixture.

[2] = test system: Brachiaria platyphylla (Griseb.) Nash or Urochloa platyphylla (Nash) R.D. Webster (BRAPP); assay: Postemergence foliar-applied herbicidal mixtures, weed control in direct seeded rice (greenhouse)
Description: (§12) Seeds or nutlets of the desired test plant species were planted in a soil matrix prepared by mixing a loam or sandy loam soil (e.g., 28.6 percent silt, 18.8 percent clay, and 52.6 percent sand, with a pH of about 5.8 and an organic matter content of about 1.8 percent) and calcareous grit in an 80 to 20 ratio. The soil matrix was contained in plastic pots with a volume of 1 quart and a surface area of 83.6 square centimeters (cm^2). When required to ensure good germination and healthy plants, a fungicide treatment and/or other chemical or physical treatment was applied. The plants were grown for 8-22 days in a greenhouse with an approximate 14 h photoperiod which was maintained at about 29° C. during the day and 26° C. during the night. Nutrients (Peters Excel® 15-5-15 5-Ca 2-Mg and iron chelate) were applied in the irrigation solution as needed and water was added on a regular basis. Supplemental lighting was provided with overhead metal halide 1000-Watt lamps as necessary. The plants were employed for testing when they reached the first through fourth true leaf stage.
(§13) Treatments consisted of the acid or esters of 4-amino-3-chloro-5-fluoro-6-(4-chloro-2-fluoro-3-methoxy-phenyl) pyridine-2-carboxylic acid (Compound A), each formulated as an SC (suspension concentrate), and various herbicidal components alone and in combination. Forms of compound A were applied on an acid equivalent basis.
(§14) Other herbicidal components were applied on an active ingredient basis and included cellulose biosynthesis-inhibiting (CBI) herbicides isoxaben formulated as Gallery® 75DF and indaziflam formulated as Specticle® 20WSP.
as §4
as §5, with “oil concentrated” for “oil concentrate (COC)”, “(v/v) crop oil concentrate” for “(v/v) COC”, “contained 1.25+/−0.05%” for “contained 1.25%”, “(v/v) crop oil concentrate.” for “(v/v) COC.”
(§15) All stock solutions and applications solutions were visually inspected for compound compatibility prior to application. Spray solutions were applied to the plant material with an overhead Mandel track sprayer equipped with a 8002E nozzles calibrated to deliver 187 L/ha over an application area of 0.503 m^2 at a spray height of 18 to 20 inches (46 to 50 cm) above average plant canopy height. Control plants were sprayed in the same manner with the solvent blank.
(§16) The treated plants and control plants were placed in a greenhouse as described above and watered by sub-irrigation to prevent wash-off of the test compounds. After approximately 3 weeks, the condition of the test plants as compared with that of the untreated plants was determined visually and scored on a scale of 0 to 100 percent where 0 corresponds to no injury or growth inhibition and 100 corresponds to complete kill.
as §8, §9, §10, §11

[3] = test system: Digitaria sanguinalis (L.) Scop. (DIGSA); assay: as above
Description: as §12, §13, §14, §4
as §5, with “oil concentrated” for “oil concentrate (COC)”, “(v/v) crop oil concentrate” for “(v/v) COC”, “contained 1.25+/−0.05%” for “contained 1.25%”, “(v/v) crop oil concentrate.” for “(v/v) COC.”
as §15, §16, §8, §9, §10, §11

[4] = test system: Ipomoea hederacea Jacq. (IPOHE); assay: as above
Description: as §12, §13, §14, §4
as §5, with “oil concentrated” for “oil concentrate (COC)”, “(v/v) crop oil concentrate” for “(v/v) COC”, “contained 1.25+/−0.05%” for “contained 1.25%”, “(v/v) crop oil concentrate.” for “(v/v) COC.”
as §15, §16, §8, §9, §10, §11

[5] = test system: Setaria faberi Herrm. (SETFA); assay: Pre-emergence soil-applied herbicidal mixtures for weed control (greenhouse)
Description: as §1, §2, §3, §4, §5, §6, §7, §8, §9, §10, §11

[6] = test system: Ipomoea hederacea (L.) Jacq. (IPOHE); assay: as above
Description: as §1, §2, §3, §4, §5, §6, §7, §8, §9, §10, §11

[7] = Compound A Benzyl Ester 16 g ae/ha alone
[8] = Compound A Benzyl Ester 32 g ae/ha alone
[9] = Compound A Benzyl Ester 4.38 g ae/ha alone
[10] = Compound A Benzyl Ester 8.75 g ae/ha alone
[11] = Compound A Benzyl Ester 17.5 g ae/ha alone

## CCC(C)(CC)c1cc(NC(=O)c2c(OC)cccc2OC)on1 [Isoxaben, N-[3-(1-ethyl-1-methylpropyl)-5-isoxazolyl]-2,6-dimethoxybenzamide, reference compound]
[1]; Isoxaben 560 g ai/ha alone
  Visual Weed Control (%) - 27 DAA ABUTH Obs: 77%
[1]; Isoxaben 1120 g ai/ha alone
  Visual Weed Control (%) - 27 DAA ABUTH Obs: 67%
[2]; Isoxaben 140 g ai/ha alone
  Visual Weed Control (%) - 20 DAA Obs: 0%
[2]; Isoxaben 280 g ai/ha alone
  Visual Weed Control (%) - 20 DAA Obs: 0%
[2]; Isoxaben 560 g ai/ha alone
  Visual Weed Control (%) - 20 DAA Obs: 20%
[3]; Isoxaben 280 g ai/ha alone
  Visual Weed Control (%) - 20 DAA Obs: 10%
[3]; Isoxaben 560 g ai/ha alone
  Visual Weed Control (%) - 20 DAA Obs: 20%
[4]; Isoxaben 140 g ai/ha alone
  Visual Weed Control (%) - 20 DAA Obs: 15%
[4]; Isoxaben 280 g ai/ha alone
  Visual Weed Control (%) - 20 DAA Obs: 25%

## COc1c(Cl)ccc(-c2nc(C(=O)OCc3ccccc3)c(Cl)c(N)c2F)c1F [Compound A Benzyl Ester, benzyl ester of 4-amino-3-chloro-5-fluoro-6-(4-chloro-2-fluoro-3-methoxy-phenyl)pyridine-2-carboxylic acid]
[5]; [7]
  Visual Weed Control (%) - 27 DAA SETFA Obs: 8%
[5]; [8]
  Visual Weed Control (%) - 27 DAA SETFA Obs: 15%
[6]; [7]
  Visual Weed Control (%) - 28 DAA IPOHE Obs: 13%
[6]; [8]
  Visual Weed Control (%) - 28 DAA IPOHE Obs: 23%
[1]; [7]
  Visual Weed Control (%) - 27 DAA ABUTH Obs: 48%
[1]; [8]
  Visual Weed Control (%) - 27 DAA ABUTH Obs: 87%
[2]; [9]
  Visual Weed Control (%) - 20 DAA Obs: 70%
[2]; [10]
  Visual Weed Control (%) - 20 DAA Obs: 80%
[2]; [11]
  Visual Weed Control (%) - 20 DAA Obs: 90%
[3]; [9]
  Visual Weed Control (%) - 21 DAA Obs: 10%
[3]; [10]
  Visual Weed Control (%) - 20 DAA Obs: 30%
  Visual Weed Control (%) - 21 DAA Obs: 45%
[3]; [11]
  Visual Weed Control (%) - 20 DAA Obs: 30%
  Visual Weed Control (%) - 21 DAA Obs: 70%
[4]; [9]
  Visual Weed Control (%) - 20 DAA Obs: 10%
[4]; [10]
  Visual Weed Control (%) - 20 DAA Obs: 10%
[4]; [11]
  Visual Weed Control (%) - 20 DAA Obs: 15%
